From PMC7179180, “Novel 2,4-Disubstituted-1,3-Thiazole Derivatives: Synthesis, Anti-Candida Activity Evaluation and Interaction with Bovine Serum Albumine” (Molecules, 2020) come the findings set out here.

The assay addresses T1, bovine serum albumin (BSA) (Bos taurus, UniProt P02769).
T1 construct: gene ALB; native plasma protein, commercial BSA fraction V (Merck), mature single chain of 583 residues, no further purification
Description: Trp fluorescence quenching. In kind it is binding. The note with it: pH 7.4, room temperature, BSA 1.5 μM, double-log. From the text: Trp fluorescence quenching on bovine serum albumin (BSA)

Structures are written as SMILES.

T1 sequence (P02769 25-607): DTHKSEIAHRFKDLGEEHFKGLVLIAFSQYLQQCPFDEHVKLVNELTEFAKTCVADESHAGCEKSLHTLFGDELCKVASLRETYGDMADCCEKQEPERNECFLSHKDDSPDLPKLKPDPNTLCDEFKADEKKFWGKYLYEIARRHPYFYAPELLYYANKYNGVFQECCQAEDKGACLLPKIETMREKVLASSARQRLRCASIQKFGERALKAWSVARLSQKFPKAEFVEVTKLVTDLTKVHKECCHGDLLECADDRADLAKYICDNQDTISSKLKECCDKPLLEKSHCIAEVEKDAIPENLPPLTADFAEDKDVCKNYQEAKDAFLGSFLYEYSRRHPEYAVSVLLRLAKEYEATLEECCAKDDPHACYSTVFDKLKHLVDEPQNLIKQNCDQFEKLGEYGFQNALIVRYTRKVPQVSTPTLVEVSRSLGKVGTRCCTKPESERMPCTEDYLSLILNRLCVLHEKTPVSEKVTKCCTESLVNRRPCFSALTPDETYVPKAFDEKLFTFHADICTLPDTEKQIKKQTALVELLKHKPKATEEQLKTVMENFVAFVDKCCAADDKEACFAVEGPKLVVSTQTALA

In the case of `Cc1ccc(C(C)C)c(OCc2nc(-c3ccc(Cl)cc3)cs2)c1` [4b, 4-(4-chlorophenyl)-2-((2-isopropyl-5-methylphenoxy)methyl)thiazole], the “Kb × 10^4 (M^-1)” value was 6.98 × 10^4 M^-1. As for `Cc1ccc(C(C)C)c(OCC(=NNc2nc(-c3ccc(Cl)cc3)cs2)c2ccccc2)c1` [7b, 4-(4-chlorophenyl)-2-(2-(2-(2-isopropyl-5-methylphenoxy)-1-phenylethylidene)hydrazineyl)thiazole], the figure is 18.02 × 10^4 M^-1. On to `Cc1ccc(C(C)C)c(OCC(=NNc2nc(-c3ccc(Br)cc3)cs2)c2ccccc2)c1` [7c, 4-(4-bromophenyl)-2-(2-(2-(2-isopropyl-5-methylphenoxy)-1-phenylethylidene)hydrazineyl)thiazole], for which the “Kb × 10^4 (M^-1)” value is listed as 1.85 × 10^4 M^-1. Consider `Cc1ccc(C(C)C)c(OCc2nc(-c3ccc(Br)cc3)cs2)c1` [4c, 4-(4-bromophenyl)-2-((2-isopropyl-5-methylphenoxy)methyl)thiazole], for which the “Kb × 10^4 (M^-1)” value is reported as 2.61 × 10^4 M^-1.

`COc1ccc(-c2csc(COc3cc(C)ccc3C(C)C)n2)cc1` [4a, 2-((2-isopropyl-5-methylphenoxy)methyl)-4-(4-methoxyphenyl)thiazole]: the “Kb × 10^4 (M^-1)” value was 6.60 × 10^4 M^-1. Consider `Cc1ccc(C(C)C)c(OCc2nc(-c3ccc4ccccc4c3)cs2)c1` [4d, 2-((2-isopropyl-5-methylphenoxy)methyl)-4-(naphthalen-2-yl)thiazole], for which the “Kb × 10^4 (M^-1)” value is recorded as 8.51 × 10^4 M^-1. As for `Cc1ccc(C(C)C)c(OCC(=NNc2nc(-c3ccc4ccccc4c3)cs2)c2ccccc2)c1` [7d, 2-(2-(2-(2-isopropyl-5-methylphenoxy)-1-phenylethylidene)hydrazineyl)-4-(naphthalen-2-yl)thiazole], the figure is 9.14 × 10^4 M^-1; as for `COc1ccc(-c2csc(NN=C(COc3cc(C)ccc3C(C)C)c3ccccc3)n2)cc1` [7a, 2-(2-(2-(2-isopropyl-5-methylphenoxy)-1-phenylethylidene)hydrazineyl)-4-(4-methoxyphenyl)thiazole], 5.64 × 10^4 M^-1.
